Consider one substance from US11879140B2, “P21 mRNA targeting DNAzymes” (1E Therapeutics Ltd., priority 2020, dated 2024).

Data set [1] deals with senescent human IMR-90 fibroblast cells. It counts as cell-based. Conditions: increasing concentrations (FIGS. 6A-C, 12A-C). Put shortly:
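Senescence was induced by etoposide at […] for 48 h, with the phenotype present 7 days later, or by H-RasG12 or long-term passaging. Cells grown at 5% oxygen were transfected with DNAzymes by Lipofectamine 2000, and survival was scored 3-6 days later by PrestoBlue relative to Lipofectamine-only control.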

For data set [2], the system named is p21 protein. The data set can be described thus: Immunofluorescence of p21 protein in senescent cells. The class given is cell-based, human. Conditions: 48 hour treatment, 1000 nM, compared to control scramble (FIG. 5G). On the procedure:
48 hours following transfection. IMR-90 cells were fixed by PFA 4% following the indicated treatments. Cells were blocked and incubated with antibodies against human p21 (CST) in blocking solution. Cells were then incubated with Dylight-549-conjugated secondary antibody (Jackson ImmunoResearch) and counterstained with DAPI (Sigma). Images were acquired using Nikon Eclipse Ti2 microscope at ×10 magnification.
Alternatively, cells were fixed with 4% Formaldehyde for 15 minutes, permeabilized in 0.2% […] for 5 minutes and blocked with 2% bovine serum albumin (BSA) for 30 min in room temperature. Cells were then incubated with a primary or with a conjugated antibody over-night or for 3 hours respectively. For unconjugated antibodies, a corresponding fluorescently-labelled secondary antibody was added for 1 hour, followed by Hoechst counterstaining. Cells were washed with PBS three times following each step. Images were acquired using Nikon Eclipse Ti2 microscope at ×10 magnification.
Antibodies were diluted in blocking solution as indicated below: 53BP1 antibody (Novus biologicals NB100-304, 1:800), Phospho-histone H2AX antibody (Cell signaling #2577, 1:800), p21 Waf1/Cip1 antibody (Cell signaling #8865, 1:500), p16 antibody (Santa Cruz sc-56330, 1:200), Alexa Fluor-488 goat anti mouse (Thermo Fisher A11029, 1:1000).

Data set [3] has as its system cancer cell lines (HepG2, A549, Panc1, HCT-116). Kind of data set: Chemotherapy and DNAzyme combination, several cancer cell lines. The class given is cell-based. Conditions: therapy induced senescence, viability 72 hours following treatment (FIG. 12F). From the text: (§1) PANC-1 cells were maintained in DMEM medium supplemented with 10% fetal bovine serum, 1% penicillin-streptomycin and 1% sodium pyruvate. HCT116 cells were maintained in McCoy's 5A medium supplemented with 10% fetal bovine serum and 1% penicillin-streptomycin. A549 cells were maintained in F-12K Medium supplemented with 10% fetal bovine serum and 1% penicillin-streptomycin. HepG2 cell were maintained Eagle's Minimum Essential Medium, supplemented in 10% fetal bovine serum, 1% penicillin-streptomycin and 1% sodium pyruvate. All cancer cell lines were incubated in 5% C02 at 37° C.
(§2) Cancer cell lines were seeded in 96 well plates 24 hours before treatment. Chemotherapies were applied at indicated concentrations either alone or as combination with DNAzyme-lipofectamine complex. 72 hours following treatment, cell viability was measured using Prestoblue® reagent. Chemotherapies were diluted in cell medium to the indicated concentrations. 24 hours following seeding, culture medium was replaced with chemotherapy containing medium, immediately followed by transfection of DNAzyme as described above. 72 hours following treatment, cell viability was measured using Prestoblue® reagent.
(§3) The following chemotherapies were used: Etoposide (Sigma), Palbociclib (Sigma), Doxorubicin (Sigma), Cisplatin (Sigma), ABT-263 (Selleckchem). All compounds were dissolved and stored according to manufacturer instructions.

Another data set has as its system HepG2 cells. Kind of data set: Chemotherapy and DNAzyme combination, HepG2. It counts as cell-based.
From the text: as §1, §2, §3

In data set [4] the test system is p21 protein. The data set can be described thus: p21 protein in HepG2 cell lysate (IF and ELISA). The settings on record: Etoposide alone or with scramble or DNAzyme 1670 (FIGS. 15B-C). It counts as cell-based, human. The method, then:
p21 protein quantification was analyzed using (Human p21 ELISA Kit—ab214658, Abcam), according to the manufacturer's instructions. The cell pellets were incubated with Cell Extraction Buffer PTR on ice for 20 minutes. Following Centrifuge at 18,000×g for 20 minutes, the sample protein concentrations were quantified using a BCA protein assay. The samples and Antibody Cocktail were added to appropriate wells and incubated for one hour at room temperature (RT), followed by three washes with Wash Buffer and incubation with TMB Development Solution for 15 minutes at RT. Then, the Stop Solution was added, the samples were incubated for 1 minute, and the samples were read by absorbance at 450 nm using plate reader.

Data set [5] is described as follows: DNAzyme stability analysis in serum. The class given is in vitro ADME. The method, then: (§4) DNAzyme stability was assessed by incubation with PBS, plasma and BALF (Bronchoalveolar Lavage Fluid). A comparison between unmodified and 3′Inverted dT modification was made. Following incubation for the indicated time points, samples were analyzed using gel electrophoresis. Quantification compared to time 0 was performed using Image Lab software (Bio Rad).

The nature of data set [6]: DNAzyme stability analysis in BALF. It counts as in vitro ADME, mice. On the procedure: as §4
Setting [7] is: unmodified DNAzyme, from the start of incubation (FIG. 13A).

Consider “DNAzyme 1670: SEQ ID NO: 54: GGGAAAGGAggctagctacaacgaAAGGGGGAG (DNA GGGAAAGGAGGCTAGCTACAACGAAAGGGGGAG; DNA, backbone and methylation of C not given here)”, for which the “selectivity of killing, senescent versus growing IMR-90 cells” value in data set [1] was “wide range of selective doses”. Besides, in the data set with p21 protein [2], the p21 protein levels result is given as “significantly reduced”. The “efficacy of sub-clinical Etoposide in combination with DNAzyme” value in data set [3] is recorded as “comparable to that of clinical Etoposide dose”. Moreover, the “sub-clinical doses of various chemotherapies in combination with DNAzyme, synergy” value with HepG2 cells (HepG2 (FIG. 12G)) is on record as “synergistic activity”. Moreover, the “combination treatment of Etoposide and DNAzyme, synergy” value in the data set on HepG2 cells (liver cancer cell line HepG2 (FIG. 12F)) was “good synergistic results”. In addition, in the data set on p21 protein [4], the “p21 protein in cell lysate” value was “can counteract the upregulation in p21 levels”. For the same substance, the “time to complete degradation in serum” value in data set [5] (setting [7]) turned out to be 48 h. Further, the “time to degradation in serum” value in data set [5] (with 3′ inverted dT modification versus unmodified (FIG. 13B)) is “significantly increased”. Also, in data set [6] (FIG. 13C), the “stability in BALF of diseased (bleomycin) mice compared to naive BALF” value is reported as “lower”. Further, the “start of reduction in size (below full length) in BALF” value in data set [6] (setting [7]) was determined as 24 h. In addition, in data set [6] (with 3′ inverted dT modification versus unmodified (FIGS. 7B, 13C)), the “time to degradation / stability in BALF” value is on record as “significantly increased”.
